Where two headings read alike, the source gives them in different places. Values belong to the compound of their own block, whether it stands above or below them.
Legend:
Assay in all cases: biochemical
Parameters in all cases: Thermal shift (DSF, SYPRO Orange) Tm shift of recombinant kinase domains at 10 uM compound
DYRK2 = molecular target: T1, DYRK2 (Homo sapiens, UniProt Q92630)
T1 sequence (Q92630 1-601): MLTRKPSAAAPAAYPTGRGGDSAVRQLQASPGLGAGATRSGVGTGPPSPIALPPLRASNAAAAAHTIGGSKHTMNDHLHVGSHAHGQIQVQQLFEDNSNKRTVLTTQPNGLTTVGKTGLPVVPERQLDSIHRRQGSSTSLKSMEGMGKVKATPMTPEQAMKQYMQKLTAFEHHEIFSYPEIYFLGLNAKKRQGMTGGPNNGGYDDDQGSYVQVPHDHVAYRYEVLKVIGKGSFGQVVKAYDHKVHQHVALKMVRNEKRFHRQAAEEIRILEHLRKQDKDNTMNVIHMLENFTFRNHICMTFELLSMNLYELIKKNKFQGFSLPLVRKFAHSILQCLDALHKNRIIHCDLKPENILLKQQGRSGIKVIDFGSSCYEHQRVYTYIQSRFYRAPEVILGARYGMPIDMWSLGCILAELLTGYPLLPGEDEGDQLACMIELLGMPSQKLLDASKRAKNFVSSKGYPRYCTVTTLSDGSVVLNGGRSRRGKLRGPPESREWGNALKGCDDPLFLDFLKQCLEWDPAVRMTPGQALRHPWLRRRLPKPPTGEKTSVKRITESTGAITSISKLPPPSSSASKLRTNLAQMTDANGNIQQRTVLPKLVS

CAMK2B = CAMK2B (Homo sapiens, UniProt Q13554)
GPRK5 = molecular target: T2, GPRK5 (Homo sapiens, UniProt P34947)
T2 construct: gene GRK5

MSSK1 = molecular target: T3, MSSK1 (Homo sapiens, UniProt Q9UPE1)
T3 construct: gene SRPK3

MST3 = molecular target: T4, MST3 (Homo sapiens, UniProt Q9Y6E0)
T4 construct: gene STK24

AurA = molecular target: T5, AurA (Homo sapiens, UniProt O14965)
T5 construct: gene AURKA
T5 sequence (O14965 1-403): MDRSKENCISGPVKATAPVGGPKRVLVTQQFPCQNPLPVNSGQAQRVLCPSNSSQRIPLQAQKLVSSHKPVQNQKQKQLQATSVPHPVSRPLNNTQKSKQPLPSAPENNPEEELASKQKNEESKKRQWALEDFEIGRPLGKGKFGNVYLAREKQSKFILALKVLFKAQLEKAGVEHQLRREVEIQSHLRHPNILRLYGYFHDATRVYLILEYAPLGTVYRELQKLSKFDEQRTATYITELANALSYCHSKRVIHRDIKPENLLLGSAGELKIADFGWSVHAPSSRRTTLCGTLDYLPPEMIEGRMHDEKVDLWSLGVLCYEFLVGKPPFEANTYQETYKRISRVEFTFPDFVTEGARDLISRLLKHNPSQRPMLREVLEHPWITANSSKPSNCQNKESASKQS

JNK3 = molecular target: T6, JNK3 (Homo sapiens, UniProt P53779)
T6 construct: gene MAPK10

CASK = molecular target: T7, CASK (Homo sapiens, UniProt O14936)
T7 sequence (O14936 1-926): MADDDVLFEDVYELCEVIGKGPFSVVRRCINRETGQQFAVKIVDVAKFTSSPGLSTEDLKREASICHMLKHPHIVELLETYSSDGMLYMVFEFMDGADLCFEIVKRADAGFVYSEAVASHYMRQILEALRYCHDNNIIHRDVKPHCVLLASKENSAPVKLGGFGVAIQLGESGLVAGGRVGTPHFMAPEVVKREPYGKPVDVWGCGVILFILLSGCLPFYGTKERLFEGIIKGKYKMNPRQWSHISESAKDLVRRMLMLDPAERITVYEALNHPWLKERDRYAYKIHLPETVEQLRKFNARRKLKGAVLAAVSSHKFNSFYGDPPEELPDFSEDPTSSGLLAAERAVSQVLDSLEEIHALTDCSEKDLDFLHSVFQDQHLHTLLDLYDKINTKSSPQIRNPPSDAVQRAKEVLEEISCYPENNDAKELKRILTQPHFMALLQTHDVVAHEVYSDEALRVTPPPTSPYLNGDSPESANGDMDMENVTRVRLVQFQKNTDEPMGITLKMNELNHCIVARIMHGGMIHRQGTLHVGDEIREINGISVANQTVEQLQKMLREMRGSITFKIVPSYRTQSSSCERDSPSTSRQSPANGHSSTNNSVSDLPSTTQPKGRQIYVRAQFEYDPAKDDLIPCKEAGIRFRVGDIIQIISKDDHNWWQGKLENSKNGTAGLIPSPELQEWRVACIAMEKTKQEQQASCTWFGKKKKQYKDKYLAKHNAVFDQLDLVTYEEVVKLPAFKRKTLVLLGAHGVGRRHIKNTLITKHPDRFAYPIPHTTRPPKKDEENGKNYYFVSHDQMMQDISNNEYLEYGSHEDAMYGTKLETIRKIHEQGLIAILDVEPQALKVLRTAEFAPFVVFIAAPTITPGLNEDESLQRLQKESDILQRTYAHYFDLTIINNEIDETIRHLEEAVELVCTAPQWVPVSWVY

FGFR1 = FGFR1 (Homo sapiens, UniProt P11362)
Sequence of FGFR1 (P11362 whole entry): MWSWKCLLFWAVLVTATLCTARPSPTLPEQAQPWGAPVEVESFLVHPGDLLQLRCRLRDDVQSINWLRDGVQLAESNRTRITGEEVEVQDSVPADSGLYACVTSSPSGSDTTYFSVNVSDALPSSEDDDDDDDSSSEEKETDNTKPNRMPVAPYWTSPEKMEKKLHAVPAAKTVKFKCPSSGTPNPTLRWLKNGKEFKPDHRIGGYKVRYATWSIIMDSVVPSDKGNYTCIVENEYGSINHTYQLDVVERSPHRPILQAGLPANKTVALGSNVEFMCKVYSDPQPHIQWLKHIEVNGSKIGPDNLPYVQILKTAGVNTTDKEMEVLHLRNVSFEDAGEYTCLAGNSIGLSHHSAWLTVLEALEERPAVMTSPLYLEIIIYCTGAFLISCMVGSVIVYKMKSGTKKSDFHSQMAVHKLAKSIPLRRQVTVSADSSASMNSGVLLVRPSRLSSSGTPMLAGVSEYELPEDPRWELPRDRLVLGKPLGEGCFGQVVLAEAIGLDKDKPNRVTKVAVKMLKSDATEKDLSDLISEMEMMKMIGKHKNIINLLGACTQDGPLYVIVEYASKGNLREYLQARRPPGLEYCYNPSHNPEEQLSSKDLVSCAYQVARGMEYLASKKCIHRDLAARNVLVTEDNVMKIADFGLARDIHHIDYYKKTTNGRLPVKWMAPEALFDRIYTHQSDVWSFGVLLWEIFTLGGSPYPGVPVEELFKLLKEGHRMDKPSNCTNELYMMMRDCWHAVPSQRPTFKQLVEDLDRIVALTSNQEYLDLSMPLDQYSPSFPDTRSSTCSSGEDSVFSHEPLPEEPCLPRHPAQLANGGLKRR

T2 sequence (P34947 whole entry): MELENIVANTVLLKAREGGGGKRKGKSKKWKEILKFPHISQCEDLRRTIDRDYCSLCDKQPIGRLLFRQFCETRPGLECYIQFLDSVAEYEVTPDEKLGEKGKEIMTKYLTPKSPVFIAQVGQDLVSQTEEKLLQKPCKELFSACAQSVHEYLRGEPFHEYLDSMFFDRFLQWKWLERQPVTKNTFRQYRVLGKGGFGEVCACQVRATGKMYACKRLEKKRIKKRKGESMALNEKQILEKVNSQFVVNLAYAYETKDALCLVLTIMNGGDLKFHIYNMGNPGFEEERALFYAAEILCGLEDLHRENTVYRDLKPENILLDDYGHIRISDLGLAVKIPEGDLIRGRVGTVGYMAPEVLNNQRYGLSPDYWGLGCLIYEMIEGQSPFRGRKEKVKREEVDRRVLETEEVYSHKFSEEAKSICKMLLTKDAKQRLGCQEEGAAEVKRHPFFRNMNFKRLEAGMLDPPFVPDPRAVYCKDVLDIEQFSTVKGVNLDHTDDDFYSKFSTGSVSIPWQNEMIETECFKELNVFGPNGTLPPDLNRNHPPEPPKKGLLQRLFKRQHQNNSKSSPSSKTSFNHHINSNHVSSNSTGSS
T3 sequence (Q9UPE1 whole entry): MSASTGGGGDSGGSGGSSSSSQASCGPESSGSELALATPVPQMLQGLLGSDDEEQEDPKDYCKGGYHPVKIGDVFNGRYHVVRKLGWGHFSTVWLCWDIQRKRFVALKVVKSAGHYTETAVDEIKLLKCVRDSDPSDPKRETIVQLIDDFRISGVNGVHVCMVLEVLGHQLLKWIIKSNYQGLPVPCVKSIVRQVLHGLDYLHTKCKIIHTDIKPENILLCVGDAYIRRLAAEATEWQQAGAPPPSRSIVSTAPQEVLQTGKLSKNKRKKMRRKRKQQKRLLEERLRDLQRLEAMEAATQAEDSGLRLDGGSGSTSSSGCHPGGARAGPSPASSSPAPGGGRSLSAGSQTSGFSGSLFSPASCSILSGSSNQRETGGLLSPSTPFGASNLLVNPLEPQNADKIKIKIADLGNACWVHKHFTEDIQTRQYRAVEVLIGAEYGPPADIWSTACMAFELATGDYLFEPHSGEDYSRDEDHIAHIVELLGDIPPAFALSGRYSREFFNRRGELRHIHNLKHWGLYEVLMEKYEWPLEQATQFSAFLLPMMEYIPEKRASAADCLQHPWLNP
T4 sequence (Q9Y6E0 whole entry): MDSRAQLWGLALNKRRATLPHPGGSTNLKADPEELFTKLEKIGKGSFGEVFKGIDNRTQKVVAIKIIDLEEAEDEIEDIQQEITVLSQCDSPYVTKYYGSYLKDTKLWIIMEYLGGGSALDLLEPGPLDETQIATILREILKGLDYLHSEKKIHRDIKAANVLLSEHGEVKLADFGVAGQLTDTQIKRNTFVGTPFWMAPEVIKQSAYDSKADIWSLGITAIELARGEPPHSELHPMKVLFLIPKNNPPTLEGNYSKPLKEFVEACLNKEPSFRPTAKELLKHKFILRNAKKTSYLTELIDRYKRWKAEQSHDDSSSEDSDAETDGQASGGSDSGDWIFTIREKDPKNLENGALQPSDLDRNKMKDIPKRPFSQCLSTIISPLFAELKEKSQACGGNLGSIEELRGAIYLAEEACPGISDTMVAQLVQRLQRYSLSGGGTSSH
T6 sequence (P53779 whole entry): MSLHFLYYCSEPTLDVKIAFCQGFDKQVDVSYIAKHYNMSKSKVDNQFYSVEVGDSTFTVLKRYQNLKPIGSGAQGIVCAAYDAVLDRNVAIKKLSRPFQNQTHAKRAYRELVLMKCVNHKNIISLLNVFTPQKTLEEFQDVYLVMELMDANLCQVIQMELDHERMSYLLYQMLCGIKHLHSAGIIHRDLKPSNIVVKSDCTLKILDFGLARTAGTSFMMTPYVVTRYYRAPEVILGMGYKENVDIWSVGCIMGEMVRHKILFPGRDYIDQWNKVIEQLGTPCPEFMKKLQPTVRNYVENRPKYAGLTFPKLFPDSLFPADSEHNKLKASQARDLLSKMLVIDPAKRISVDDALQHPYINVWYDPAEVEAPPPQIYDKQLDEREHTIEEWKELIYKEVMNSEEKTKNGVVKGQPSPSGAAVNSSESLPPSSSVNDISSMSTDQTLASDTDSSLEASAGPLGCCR
Sequence of CAMK2B (Q13554 whole entry): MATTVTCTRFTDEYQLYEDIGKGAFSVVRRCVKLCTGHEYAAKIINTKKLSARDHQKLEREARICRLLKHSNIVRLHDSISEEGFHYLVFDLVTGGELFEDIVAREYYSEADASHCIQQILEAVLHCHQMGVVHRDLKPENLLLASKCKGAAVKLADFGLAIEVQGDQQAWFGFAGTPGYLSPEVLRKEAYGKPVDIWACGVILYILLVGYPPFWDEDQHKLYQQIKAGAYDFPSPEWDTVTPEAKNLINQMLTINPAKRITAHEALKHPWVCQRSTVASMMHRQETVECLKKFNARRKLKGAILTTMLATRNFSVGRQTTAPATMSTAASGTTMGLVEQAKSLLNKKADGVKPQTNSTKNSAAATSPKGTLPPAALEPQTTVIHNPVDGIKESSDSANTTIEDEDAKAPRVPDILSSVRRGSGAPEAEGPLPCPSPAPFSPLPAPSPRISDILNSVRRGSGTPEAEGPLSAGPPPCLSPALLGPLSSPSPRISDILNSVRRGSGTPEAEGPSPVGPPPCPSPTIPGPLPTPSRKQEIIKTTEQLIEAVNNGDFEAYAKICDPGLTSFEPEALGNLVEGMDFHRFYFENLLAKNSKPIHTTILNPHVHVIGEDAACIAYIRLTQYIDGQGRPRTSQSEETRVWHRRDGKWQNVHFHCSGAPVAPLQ

ΔTm at 10 µM (DYRK2; read-out: 6c): 11 °C
ΔTm at 10 µM (CAMK2B; read-out: 6c): 2 °C
ΔTm at 10 µM (GPRK5; read-out: 6c): 4 °C
ΔTm at 10 µM (MSSK1; read-out: 6c): 1 °C
ΔTm at 10 µM (MST3; read-out: 6c): -3 °C
ΔTm at 10 µM (AurA; read-out: 6c): 8 °C
ΔTm at 10 µM (JNK3; read-out: 6c): 3 °C
ΔTm at 10 µM (CASK; read-out: 6c): 1 °C
ΔTm at 10 µM (FGFR1; read-out: 6c): 0 °C
SMILES: CC(C)Oc1ccc2ccn(-c3cncc(-c4ccc(C(=O)O)cc4)n3)c2c1 [6c]

ΔTm at 10 µM (DYRK2; read-out: 7c): 9 °C
ΔTm at 10 µM (CAMK2B; read-out: 7c): 1 °C
ΔTm at 10 µM (GPRK5; read-out: 7c): 4 °C
ΔTm at 10 µM (MSSK1; read-out: 7c): 1 °C
ΔTm at 10 µM (MST3; read-out: 7c): -3 °C
ΔTm at 10 µM (AurA; read-out: 7c): 4 °C
ΔTm at 10 µM (JNK3; read-out: 7c): 1 °C
ΔTm at 10 µM (CASK; read-out: 7c): 0 °C
ΔTm at 10 µM (FGFR1; read-out: 7c): 0 °C
SMILES: COc1ccc(OC(C)C)cc1Nc1cncc(-c2ccc(C(=O)O)cc2)n1 [7c]

ΔTm at 10 µM (DYRK2; read-out: 2): 12 °C
ΔTm at 10 µM (CAMK2B; read-out: 2): 2 °C
ΔTm at 10 µM (GPRK5; read-out: 2): 6 °C
ΔTm at 10 µM (MSSK1; read-out: 2): 3 °C
ΔTm at 10 µM (MST3; read-out: 2): 1 °C
ΔTm at 10 µM (AurA; read-out: 2): 10 °C
ΔTm at 10 µM (JNK3; read-out: 2): 6 °C
ΔTm at 10 µM (CASK; read-out: 2): 0 °C
ΔTm at 10 µM (FGFR1; read-out: 2): 1 °C
SMILES: CC(C)Nc1ccc2cnn(-c3cncc(-c4ccc(C(=O)O)cc4)n3)c2c1 [compound 2, 2]

— publication doi:10.1101/2023.12.04.569845, “Identification of 4-(6-((2-methoxyphenyl)amino)pyrazin-2-yl)benzoic acids as CSNK2A inhibitors with antiviral activity and improved selectivity over PIM3” (bioRxiv, 2023)
